Measurements published in PubChem BioAssay (NCI).
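Step 1: Grow cells in 96-well plates. Step 2: Expose to compound for 48 hours at 5 concentrations. Step 3: Interpolate endpoints linearly; if unreached, use highest concentration. At the GI50, growth is halved. Definition used: TGI = concentration required for complete inhibition of growth.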

Assays:
Experiment in all cases: inhibition of tumour cell growth, NCI panel, 48 h
[1] = test system: CCRF-CEM leukemia
[2] = test system: U251 CNS
[3] = test system: K-562 leukemia
[4] = test system: IGROV1 ovarian
[5] = test system: KM12 colon
[6] = test system: UACC-62 melanoma
[7] = test system: SF-295 CNS
[8] = test system: SK-MEL-2 melanoma
[9] = test system: SF-539 CNS
[10] = test system: HL-60(TB) leukemia

C/C(=N\Nc1cc(C)c2cc(C)ccc2n1)c1ccccn1
GI50 [1]: < 27.6 nM
TGI [1]: 356 nM
GI50 [2]: < 39.3 nM
TGI [2]: 1160 nM
GI50 [3]: 95 nM
TGI [3]: 1430 nM
TGI [4]: 425 nM
GI50 [5]: 77.2 nM
TGI [5]: 1790 nM
GI50 [6]: 79.4 nM
TGI [6]: 375 nM
TGI [7]: 278 nM
GI50 [8]: 70.6 nM
TGI [8]: 10800 nM
GI50 [9]: 57.3 nM
TGI [9]: 263 nM
GI50 [10]: < 43.1 nM
TGI [10]: 129 nM

CC1(C)N=C(N)N=C(N)N1c1ccc(OCCCCOc2ccc(S(=O)(=O)F)cc2)c(Cl)c1
GI50 [1]: 79.4 nM
TGI [1]: 17600 nM
GI50 [2]: 50.6 nM
TGI [2]: 13600 nM
GI50 [3]: 59.7 nM
TGI [3]: 15800 nM
GI50 [4]: 60.2 nM
TGI [4]: 21800 nM
GI50 [5]: 279 nM
TGI [5]: 11700 nM
GI50 [6]: 53.4 nM
TGI [6]: 18000 nM
GI50 [7]: 286 nM
TGI [7]: 11500 nM
GI50 [8]: 2890 nM
TGI [8]: 22100 nM
GI50 [9]: 398 nM
TGI [9]: 8390 nM
GI50 [10]: 59.5 nM
TGI [10]: 13700 nM

Cn1c(/C=C(\C#N)c2ccccc2)nc2c(N3CCOCC3)nc(Cl)nc21
GI50 [1]: 295 nM
TGI [1]: 971 nM
GI50 [2]: 1470 nM
TGI [2]: 2970 nM
GI50 [3]: 348 nM
TGI [3]: 3460 nM
GI50 [4]: 871 nM
TGI [4]: 2170 nM
GI50 [5]: 1870 nM
TGI [5]: 3770 nM
GI50 [6]: 1190 nM
TGI [6]: 2520 nM
GI50 [7]: 1980 nM
TGI [7]: 4320 nM
GI50 [8]: 1620 nM
TGI [8]: 3180 nM
GI50 [9]: 1420 nM
TGI [9]: 2740 nM
GI50 [10]: 462 nM
TGI [10]: 2610 nM

O=C1CCCCCCCC/C=C\CC(c2ccco2)O1 (stereo not drawn)
GI50 [1]: 36000 nM
TGI [1]: > 100000 nM
GI50 [2]: 19500 nM
TGI [2]: 48200 nM
GI50 [3]: 23500 nM
TGI [3]: 73800 nM
GI50 [4]: 28100 nM
TGI [4]: > 100000 nM
GI50 [5]: 28500 nM
TGI [5]: > 100000 nM
GI50 [6]: 14600 nM
TGI [6]: 68900 nM
GI50 [7]: 25400 nM
TGI [7]: > 100000 nM
GI50 [8]: 21600 nM
TGI [8]: 58400 nM
GI50 [9]: 56000 nM
TGI [9]: > 100000 nM
GI50 [10]: 12000 nM
TGI [10]: 31000 nM

Cc1cc2nc3c4cc(N)ccc4n(CCN(C)C)c3nc2cc1C
GI50 [1]: 891 nM
TGI [1]: 17600 nM
GI50 [2]: 613 nM
TGI [2]: 11100 nM
GI50 [3]: 421 nM
TGI [3]: 8980 nM
GI50 [4]: 500 nM
TGI [4]: 4620 nM
GI50 [5]: 882 nM
TGI [5]: 7110 nM
GI50 [6]: 824 nM
TGI [6]: 2750 nM
GI50 [7]: 705 nM
TGI [7]: 4030 nM
GI50 [8]: 1340 nM
TGI [8]: 3890 nM
GI50 [9]: 839 nM
TGI [9]: 4660 nM
GI50 [10]: 947 nM
TGI [10]: 4240 nM

O=[N+]([O-])c1nccn1CC(O)CN1CC1 (stereo not drawn)
TGI [1]: > 100000 nM
TGI [2]: > 100000 nM
TGI [3]: > 100000 nM
TGI [4]: > 100000 nM
TGI [5]: > 100000 nM
TGI [6]: > 100000 nM
TGI [7]: > 100000 nM
TGI [8]: > 100000 nM
TGI [9]: > 100000 nM
TGI [10]: 73100 nM

C=C1C(=O)O[C@H]2[C@H]1CC/C(Cn1cc(-c3cc(C(F)(F)F)cc(C(F)(F)F)c3)nn1)=C\CC[C@@]1(C)O[C@@H]21
GI50 [1]: 169 nM
TGI [1]: 821 nM
GI50 [2]: 1440 nM
TGI [2]: 2760 nM
GI50 [3]: 238 nM
TGI [3]: 601 nM
GI50 [4]: 841 nM
TGI [4]: 2340 nM
GI50 [5]: 1040 nM
TGI [5]: 2530 nM
GI50 [6]: 344 nM
TGI [6]: 1380 nM
GI50 [7]: 1190 nM
TGI [7]: 2530 nM
GI50 [8]: 348 nM
TGI [8]: 1490 nM
GI50 [9]: 178 nM
TGI [9]: 422 nM
GI50 [10]: 190 nM
TGI [10]: 484 nM
